Test results: patent US20080207738A1, “DRUG COMBINATIONS TO TREAT DRUG RESISTANT TUMORS” (priority 2007, published 2008)

System: L5178/MDR1 mouse T-cell lymphoma cells
Assay: cells
Settings: Mus musculus, T-cell, 72 h, read-out: Inhibition (%) of viability
Source text: For the determination of relative number of viable cells before and after treatments, in most cases the MTT assay was used. This calorimetric assay is based on the ability of living cells, but not dead cells, to reduce 3-(4, 5-dimethyl thiazol-2-yl)-2, 5-diphenyltetrazolium bromide [Carmichael, J, De Graff, W. G., Gazdar, A. F., Minna, J. D. and Mitchell, J. B. (1987), “Evaluation oftetrazolium-based semiautomated calorimetric assay: Assessment of chemosensitivity testing,” Cancer Res., 47, 936-942]. For this assay, cells were plated in 96-well plates (10,000-30,000 cells in case of cultured cells, 100,000 cells in case of healthy lymphocytes, and 200,000 cells in case of chronic lymphocytic leukemia or non-Hodgkin lymphocytes) in the respective incubation media. After a 24-h resting period, the cells were treated with the test agents and then incubated (in CO2 incubator under humidified atmosphere) for 72 hours (final incubation volume, 150 μl). The MTT assay was performed both with the untreated and treated cell cultures at the conclusion of the incubation. Often, the MTT assay also was performed at the start of treatments to allow assessment of proliferation rates in the control and treated cell cultures. All data presented are the average of 4 incubations (in 4 separate wells) with the same cell population.
L5178/MDR1 cells were seeded at 10,000 cells per well in 96-well plates and then incubated for 72 hours in the absence or presence of 5 μg/ml of CCcompound104 and various concentrations of CCcompound26 as indicated in Table 6.
Epirubicin, like doxorubicin and other antracyclins, is an MDR1 substrate. The goal of this experiment was to use epirubicin as a model compound to determine if in L5178/MDR1 cells CCcompound104 also can enhance the effects of MDR1 substrate anti-cancer agents other than CCcompound26 and other thioxanthene or thioxanthone CC compounds. The parent and MDR1 expressing cells were seeded at 30,000 cells per well in 96-well microplates and after a 24-h resting period treated with increasing concentrations of epirubicin n in the absence or presence of 5 μg/ml of CCcompound104 for 72 hours.

`C=CC[N+](CC)(CC)CC/C=C1/c2ccccc2Sc2ccc(C)cc21.[Br-]` [CCcompound26, N,N-Diethyl-N-allyl-3-(2-methyl-9H-thioxanthen-9-ylidene)-propan-1-aminiumbromide] was tested, and the cytotoxicity at 1.56 µM was 0%, the cytotoxicity at 3.12 µM was 0% and the cytotoxicity at 6.25 µM was 10%. The cytotoxicity at 12.5 µM was 15%, the cytotoxicity at 25 µM was 13% and the cytotoxicity at 100 µM was 56%.
